Measured values: PubChem BioAssay (NCI)
Several values for one entry are separate records, joined by “and”; a condition that tells them apart may be missing. Equal values may be shown once.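 Assay format: 96-well plates, 48-hour exposure. GI50 is the concentration that inhibits growth by half. TGI marks complete inhibition of growth.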

Columns and labels:
Test in all cases: NCI-60 cell line screen, 48 h
M19-MEL melanoma = test system: M19-MEL melanoma
XF 498 CNS = test system: XF 498 CNS
HOP-18 NSCLC = test system: HOP-18 NSCLC
DMS 114 small cell lung = test system: DMS 114 small cell lung
LXFL 529 NSCLC = test system: LXFL 529 NSCLC
DLD-1 colon = test system: DLD-1 colon
SNB-78 CNS = test system: SNB-78 CNS
DMS 273 small cell lung = test system: DMS 273 small cell lung
KM20L2 colon = test system: KM20L2 colon
RXF-631 renal = test system: RXF-631 renal

| Structure (SMILES) | TGI (M19-MEL melanoma) | TGI (XF 498 CNS) | TGI (HOP-18 NSCLC) | TGI (DMS 114 small cell lung) | TGI (LXFL 529 NSCLC) | TGI (DLD-1 colon) | TGI (SNB-78 CNS) | TGI (DMS 273 small cell lung) | TGI (KM20L2 colon) | TGI (RXF-631 renal) | GI50 (XF 498 CNS) | GI50 (HOP-18 NSCLC) |
| --- | --- | --- | --- | --- | --- | --- | --- | --- | --- | --- | --- | --- |
| CC1=CC(=O)c2ccc3c4ccccc4n(C)c3c2C1=O | 38.2 µM | > 100 µM | 42.2 µM | 97.1 µM | > 100 µM | > 100 µM | > 100 µM | > 100 µM | – | – | – | – |
| Cc1nsc2cc(Cl)n(C)c(=O)c12 | > 100 µM | > 100 µM | – | > 100 µM | > 100 µM | > 100 µM | > 100 µM | > 100 µM | > 100 µM | > 100 µM | – | – |
| COc1cc(CNc2ccc(C)cc2)cc(OC)c1OC | > 100 µM | > 100 µM | > 100 µM | 0.981 µM and 3.08 µM | > 100 µM | > 100 µM | > 100 µM | – | 0.447 µM and 0.939 µM | – | 1.98 µM | 17.8 µM and > 60.8 µM |
| C=Cc1c(-c2ccccc2)cnc2[nH]c3ccccc3c12 | > 50 µM | > 50 µM | – | > 50 µM | > 50 µM | > 50 µM | – | > 50 µM | – | – | – | – |
| O=C(CC(=O)n1nc(-c2ccccc2)c(N=Nc2ccc([N+](=O)[O-])cc2)c1-c1ccccc1)Nc1ccc(Cl)cc1 | > 100 µM | 59.1 µM | > 100 µM | 48.8 µM | > 100 µM | > 100 µM | > 100 µM | > 100 µM | 24.9 µM | > 100 µM | – | – |
| COc1ccc2[nH]c(=O)cc(C)c2c1[N+](=O)[O-] | > 100 µM | > 100 µM | – | > 100 µM | > 100 µM | > 100 µM | > 100 µM | > 100 µM | > 100 µM | > 100 µM | – | – |
| CC[n+]1c(/C=C/c2cc(C(=O)OC)n3c2sc2ccccc23)sc2ccccc21 | 35.5 µM | 29.3 µM | – | 52.9 µM | 32.9 µM | – | – | 38.2 µM | 35.1 µM | – | – | – |
| COc1cc2c(c(OC)c1OC)[C@@H]1CCCCC[C@@H]1CCC2=O | > 100 µM | > 100 µM | > 100 µM | > 57.1 µM | > 100 µM | > 61 µM | – | > 100 µM | > 100 µM | > 100 µM | – | – |
| CC(=O)NC1=C(NCCO)C(=O)c2ccccc2C1=O | 18.6 µM | > 50 µM | – | – | > 50 µM | > 50 µM | > 50 µM | > 50 µM | > 50 µM | – | – | – |
| C=C1C(=O)OC2/C=C(\CO)C3OC3C3OC3(C)CC(OC(=O)/C(=C/C)COC(C)=O)C12 (stereo unspecified) | 3.94 µM | 4.54 µM | 21.6 µM | 13.2 µM | 2.17 µM | 2.53 µM | 13.4 µM | 10.5 µM | 20.5 µM | – | – | – |
| O=C(O)C(Cc1ccc(O)cc1)N=Cc1nc(-c2ccccc2)oc1O (stereo unspecified) | – | > 100 µM | > 100 µM | > 100 µM | > 100 µM | > 100 µM | > 100 µM | > 100 µM | > 100 µM | – | – | – |
